In patent US20080004253A1, “Thiazolopyrimidine modulators of TRPV1” (priority 2006, published 2008):

Assays:
[1] = biological target: T1, rat TRPV1 (Rattus norvegicus, UniProt O35433); assay: Functional assay: block of capsaicin-induced Ca2+ influx, rat assay (rTRPV1/HEK293, FLIPR); assay type: cell-based; details: rTRPV1/HEK293 cells, capsaicin challenge, Fluo-3 fluorescence; mean; > value = solubility limit in assay medium
T1 construct: expressed in transfected cells; host or cells: HEK293 (rTRPV1/HEK293), geneticin selection
T1 sequence (O35433 whole entry): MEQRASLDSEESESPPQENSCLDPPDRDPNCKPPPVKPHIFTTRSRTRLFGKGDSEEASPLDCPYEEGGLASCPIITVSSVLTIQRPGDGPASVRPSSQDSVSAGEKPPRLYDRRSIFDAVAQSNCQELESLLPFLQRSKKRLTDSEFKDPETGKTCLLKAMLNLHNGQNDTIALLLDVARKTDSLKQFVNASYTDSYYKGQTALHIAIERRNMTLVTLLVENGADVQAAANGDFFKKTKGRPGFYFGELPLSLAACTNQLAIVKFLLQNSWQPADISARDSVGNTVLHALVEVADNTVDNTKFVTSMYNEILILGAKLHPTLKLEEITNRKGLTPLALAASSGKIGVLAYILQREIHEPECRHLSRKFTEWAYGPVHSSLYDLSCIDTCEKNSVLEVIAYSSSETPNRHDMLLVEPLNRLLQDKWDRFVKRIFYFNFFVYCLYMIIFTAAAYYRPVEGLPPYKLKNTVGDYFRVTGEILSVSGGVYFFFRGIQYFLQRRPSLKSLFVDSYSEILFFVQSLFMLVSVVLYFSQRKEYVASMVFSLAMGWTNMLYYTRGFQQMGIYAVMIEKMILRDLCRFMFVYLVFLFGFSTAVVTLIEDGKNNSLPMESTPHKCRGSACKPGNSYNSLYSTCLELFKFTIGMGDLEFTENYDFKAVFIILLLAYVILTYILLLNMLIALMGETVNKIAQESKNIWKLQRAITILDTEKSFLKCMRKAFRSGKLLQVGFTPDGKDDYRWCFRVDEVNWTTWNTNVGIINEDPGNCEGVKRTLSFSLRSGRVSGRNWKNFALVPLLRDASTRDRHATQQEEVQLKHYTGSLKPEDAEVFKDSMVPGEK
Protocol: (§1) Functional assay: block of capsaicin-induced Ca^2+ influx
(§2) HEK293 cells were transfected with human TRPV1 cloned in pcDNA3.1zeo(+) using the Effectene non-liposomal lipid based transfection kit (Qiagen) (hTRPV1/HEK293). hTRPV1/HEK293 cells were routinely grown as monolayers under selection in zeocin (200 μg/mL; Invitrogen) in Dulbecco's Modified Eagle Medium (DMEM, Gibco BRL) supplemented with 10% fetal bovine serum, and penicillin/streptomycin (50 units/mL) in 5% CO2 at 37° C. Cells were passaged frequently, every 3-5 days, to avoid overgrowth, depletion of essential medium components, or acidic medium exposure. Cells were passaged using a brief wash in 0.05% trypsin with 1 mM EDTA, followed by dissociation in divalent-free phosphate-buffered saline (Hyclone #SH30028.02). […] The assay buffer was composed of 130 mM NaCl, 2 mM KCl, 2 mM MgCl2, 10 mM HEPES, 5 mM glucose, and either 2 mM or 20 μM CaCl2. On the day of the experiment, the culture medium was replaced with 2 mM calcium assay buffer using an automated plate washer (ELx405; Biotek, VT). […] After loading the cells, the dye solution was replaced with 50 μL/well of 20 μM calcium assay buffer using the ELx405 plate washer. Test compounds (50 μL/well) were added to the plate and incubated for 30 min. […] The IC50 values were determined. […] The contents of the wells were mixed 3 times (40 μL mix volume) immediately after the additions were made. Concentration-dependence of block was determined by exposing each well of cells in duplicate rows of a 96-well plate to a serial dilution of test compound. The concentration series usually started at 10 μM with a three-fold serial decrement in concentration. The magnitude of the capsaicin response was determined by measuring the change in fluo3 fluorescence before and 100 seconds after the addition of the agonist. Data were analyzed using a non-linear regression program (Origin; OriginLab, MA).
This assay was performed similarly to the human assay described above, but using HEK293 cells transfected with rat TRPV1 (rTRPV1/HEK293).
(§3) IC50 values shown are the average (mean) of the results obtained. […] Compounds were tested in either the free base or trifluoroacetic acid salt form.

[2] = biological target: T2, human TRPV1 (Homo sapiens, UniProt Q8NER1); assay: Functional assay: block of capsaicin-induced Ca2+ influx, human assay (hTRPV1/HEK293, FLIPR); assay type: cell-based; details: hTRPV1/HEK293 cells, 150 nM capsaicin challenge, Fluo-3 fluorescence; mean; > value = solubility limit in assay medium
T2 construct: expressed in transfected cells; host or cells: HEK293 (hTRPV1/HEK293), zeocin selection
T2 sequence (Q8NER1 whole entry): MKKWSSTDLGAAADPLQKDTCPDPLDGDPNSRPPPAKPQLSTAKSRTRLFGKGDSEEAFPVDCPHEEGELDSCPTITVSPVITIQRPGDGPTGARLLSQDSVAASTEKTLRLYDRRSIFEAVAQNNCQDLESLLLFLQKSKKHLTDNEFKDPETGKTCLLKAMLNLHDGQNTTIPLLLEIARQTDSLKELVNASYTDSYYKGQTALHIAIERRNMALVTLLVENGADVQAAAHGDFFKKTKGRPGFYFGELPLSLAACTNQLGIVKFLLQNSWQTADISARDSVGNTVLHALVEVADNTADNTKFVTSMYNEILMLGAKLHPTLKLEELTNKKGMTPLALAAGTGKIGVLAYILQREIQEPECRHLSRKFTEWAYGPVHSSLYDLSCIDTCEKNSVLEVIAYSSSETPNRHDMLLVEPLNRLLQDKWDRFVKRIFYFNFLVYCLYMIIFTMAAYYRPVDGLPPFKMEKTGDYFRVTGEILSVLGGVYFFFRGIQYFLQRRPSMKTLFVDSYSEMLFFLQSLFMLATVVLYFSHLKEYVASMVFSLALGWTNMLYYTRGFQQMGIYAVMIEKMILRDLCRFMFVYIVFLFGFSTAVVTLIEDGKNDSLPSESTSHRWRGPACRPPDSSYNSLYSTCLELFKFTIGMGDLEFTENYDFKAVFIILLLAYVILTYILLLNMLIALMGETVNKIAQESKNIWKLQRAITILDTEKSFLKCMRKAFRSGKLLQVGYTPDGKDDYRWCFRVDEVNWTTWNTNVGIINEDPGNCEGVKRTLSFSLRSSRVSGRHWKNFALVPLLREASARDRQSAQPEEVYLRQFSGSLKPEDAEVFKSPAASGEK
Protocol: as §1, §2, §3

Row | SMILES | IC50 [1] [µM] | IC50 [2] [µM]
1 | CN(C)c1nc(Nc2ccc(C(F)(F)F)cc2)c2nc(Nc3c(Cl)cccc3Cl)sc2n1 [Example 56, N^2-(2,6-Dichloro-phenyl)-N^5,N^5-dimethyl-N^7-(4-trifluoromethyl-phenyl)-thiazolo[5,4-d]pyrimidine-2,5,7-triamine] | 0.044 | 0.032
2 | Cc1cccc(C)c1Nc1nc2c(Nc3ccccc3C(F)(F)F)ncnc2s1 [Example 36, N^2-(2,6-Dimethyl-phenyl)-N^7-(2-trifluoromethyl-phenyl)-thiazolo[5,4-d]pyrimidine-2,7-diamine] | > 6.67 | > 6.67
3 | FC(F)(F)c1ccc(Nc2nc(N3CCC3)nc3sc(Nc4c(Cl)cccc4Cl)nc23)cc1 [Example 59, 5-Azetidin-1-yl-N^2-(2,6-dichloro-phenyl)-N^7-(4-trifluoromethyl-phenyl)-thiazolo[5,4-d]pyrimidine-2,7-diamine] | 0.022 | 0.063
4 | Cc1nc(Nc2ccc(C(F)(F)F)c(Cl)c2)c2nc(Nc3c(Cl)cccc3Cl)sc2n1 [Example 30, N^7-(3-Chloro-4-trifluoromethyl-phenyl)-N^2-(2,6-dichloro-phenyl)-5-methyl-thiazolo[5,4-d]pyrimidine-2,7-diamine] | 0.003 | 0.003
5 | Cc1nc(Nc2ccc(S(=O)(=O)N(C)C)cc2)c2nc(Nc3c(Cl)cccc3Cl)sc2n1 [Example 81, 4-[2-(2,6-Dichloro-phenylamino)-5-methyl-thiazolo[5,4-d]pyrimidin-7-ylamino]-N,N-dimethyl-benzenesulfonamide] | 0.002 | 0.002

Next, values leading:

Row | IC50 [1] [µM] | IC50 [2] [µM] | SMILES
6 | ≥ 6.67 | ≥ 6.67 | Cc1nc(Nc2ccc(S(=O)(=O)N(C)C)cc2)c2nc(Nc3ncccc3C)sc2n1 [Example 212, N,N-Dimethyl-4-[5-methyl-2-(3-methyl-pyridin-2-ylamino)-thiazolo[5,4-d]pyrimidin-7-ylamino]-benzenesulfonamide]
7 | 0.036 | 0.035 | COC[C@@H]1CCCN1c1nc(Nc2ccc(C(F)(F)F)cc2)c2nc(Nc3c(Cl)cccc3Cl)sc2n1 [Example 193, (2S)-N^2-(2,6-Dichloro-phenyl)-5-(2-methoxymethyl-pyrrolidin-1-yl)-N^7-(4-trifluoromethyl-phenyl)-thiazolo[5,4-d]pyrimidine-2,7-diamine]
8 | 3.08 | 4.28 | FC(F)(F)c1ccc(Nc2nc(N3CCNCC3)nc3sc(Nc4c(Cl)cccc4Cl)nc23)cc1Cl [Example 162, N^7-(3-Chloro-4-trifluoromethyl-phenyl)-N^2-(2,6-dichloro-phenyl)-5-piperazin-1-yl-thiazolo[5,4-d]pyrimidine-2,7-diamine]
9 | 0.162 | 0.269 | Cc1nc(Nc2ccc(C(C)(C)C)cc2)c2nc(Nc3c(C)noc3C)sc2n1 [Example 209, N^7-(4-tert-Butyl-phenyl)-N^2-(3,5-dimethyl-isoxazol-4-yl)-5-methyl-thiazolo[5,4-d]pyrimidine-2,7-diamine]
10 | 0.01 | 0.008 | Cc1nc(Nc2ccc(S(=O)(=O)C(C)C)cc2)c2nc(Nc3c(Cl)cccc3Cl)sc2n1 [Example 93, N^2-(2,6-Dichloro-phenyl)-5-methyl-N^7-[4-(propane-2-sulfonyl)-phenyl]-thiazolo[5,4-d]pyrimidine-2,7-diamine]
11 | 0.205 | 1.22 | Cc1nc(Nc2ccc(N(C)S(C)(=O)=O)cc2)c2nc(Nc3c(Cl)cccc3Cl)sc2n1 [Example 152, N-{4-[2-(2,6-Dichloro-phenylamino)-5-methyl-thiazolo[5,4-d]pyrimidin-7-ylamino]-phenyl}-N-methyl-methanesulfonamide]
12 | 1.71 | 2.47 | Cc1nc(Nc2ccc(C(F)(F)F)cc2)c2nc(Nc3ccccc3[N+](=O)[O-])sc2n1 [Example 206, 5-Methyl-N^2-(2-nitro-phenyl)-N^7-(4-trifluoromethyl-phenyl)-thiazolo[5,4-d]pyrimidine-2,7-diamine]
